Test results taken from patent EP1184374A1, “Carboxamide derivatives of pyrrolidine, piperidine and hexahydroazepine for the treatment of thrombosis disorders” (ORTHO PHARMACEUTICAL CORPORATION, priority 1996, dated 1997).

Tests used:
[1] = molecular target: GPIIb/IIIa (Homo sapiens, UniProt P05106+P08514); assay: In vitro solid phase purified glycoprotein IIb/IIIa binding assay (biotinylated fibrinogen binding); settings: for inhibition at 50 µM: read-out: Fibrinogen Binding % Inh. (50 µM)
Procedure: IN VITRO SOLID PHASE PURIFIED GLYCOPROTEIN IIB/IIIA BINDING ASSAY.
The plate is covered and incubated overnight at 4°C. The GPIIb/IIa solution is discarded and 150 µl of 5% BSA is added and incubated at RT for 1-3 h. The plate is washed extensively with modified Tyrodes buffer. Biotinylated fibrinogen (25 µl/well) at 2 x final concentration is added to the wells that contain the test compounds (25 µl/well). The plate is covered and incubated at RT for 2-4 h. Twenty minutes prior to incubation completion, one drop of Reagent A (Vecta Stain ABC Horse Radish Peroxidase kit, Vector Laboratories, Inc.) and one drop Reagent B are added with mixing to 5 mL modified Tyrodes buffer mix and let stand. The ligand solution is discarded and the plate washed (5 x 200 µl/well) with modified Tyrodes buffer. Vecta Stain HRP-Biotin-Avidin reagent (50 µl/well, as prepared above) is added and incubated at RT for 15 min. The Vecta Stain solution is discarded and the wells washed (5 x 200 µl/well) with modified Tyrodes buffer. Developing buffer (10 mL of 50 mM citrate/phosphate buffer @ pH 5.3, 6 mg o-phenylenediamine, 6 µl 30% H2O2; 50 µl/well) is added and incubated at RT for 3-5 min, and then 2N H2SO4 (50 µl/well) is added. The absorbance is read at 490 nm.

[2] = tested on: gel-filtered platelets; assay: In vitro inhibition of thrombin-induced gel-filtered platelet aggregation; assay type: cell-based; settings: Homo sapiens; for inhibition at 50 µM: read-out: Platelet Aggregation % Inh. (50µM)
Procedure: IN VITRO INHIBITION OF THROMBIN-INDUCED GEL-FILTERED PLATELET AGGREGATION ASSAY.
The percentage of platelet aggregation is calculated as an increase in light transmission of compound-treated platelet concentrate vs. control-treated platelet concentrate. Human blood is obtained from drug free, normal donors into tubes containing 0.13M sodium citrate. Platelet rich plasma (PRP) is collected by centrifugation of whole blood at 200 x g for 10 min at 25°C. The PRP (5 mL) is gel filtered through Sepharose 2B (bed volume 50 mL), and the platelet count is adjusted to 2x10^7 platelets per sample. The following constituents are added to a siliconized cuvette: concentrated platelet filtrate and Tyrode's buffer (0.14M NaCl, 0.0027MKCl, 0.012M NaHCO3, 0.76 mM Na2HPO4, 0.0055M glucose, 2 mg/mL BSA and 5.0mM HEPES @ pH 7.4) in an amount equal to 350 µl, 50 µl of 20 mM calcium and 50 µl of the test compound. Aggregation is monitored in a BIODATA aggregometer for the 3 min following the addition of agonist (thrombin 50 µl of 1 unit/mL).

Chain of GPIIb/IIIa (P08514 32-887 limits assumed): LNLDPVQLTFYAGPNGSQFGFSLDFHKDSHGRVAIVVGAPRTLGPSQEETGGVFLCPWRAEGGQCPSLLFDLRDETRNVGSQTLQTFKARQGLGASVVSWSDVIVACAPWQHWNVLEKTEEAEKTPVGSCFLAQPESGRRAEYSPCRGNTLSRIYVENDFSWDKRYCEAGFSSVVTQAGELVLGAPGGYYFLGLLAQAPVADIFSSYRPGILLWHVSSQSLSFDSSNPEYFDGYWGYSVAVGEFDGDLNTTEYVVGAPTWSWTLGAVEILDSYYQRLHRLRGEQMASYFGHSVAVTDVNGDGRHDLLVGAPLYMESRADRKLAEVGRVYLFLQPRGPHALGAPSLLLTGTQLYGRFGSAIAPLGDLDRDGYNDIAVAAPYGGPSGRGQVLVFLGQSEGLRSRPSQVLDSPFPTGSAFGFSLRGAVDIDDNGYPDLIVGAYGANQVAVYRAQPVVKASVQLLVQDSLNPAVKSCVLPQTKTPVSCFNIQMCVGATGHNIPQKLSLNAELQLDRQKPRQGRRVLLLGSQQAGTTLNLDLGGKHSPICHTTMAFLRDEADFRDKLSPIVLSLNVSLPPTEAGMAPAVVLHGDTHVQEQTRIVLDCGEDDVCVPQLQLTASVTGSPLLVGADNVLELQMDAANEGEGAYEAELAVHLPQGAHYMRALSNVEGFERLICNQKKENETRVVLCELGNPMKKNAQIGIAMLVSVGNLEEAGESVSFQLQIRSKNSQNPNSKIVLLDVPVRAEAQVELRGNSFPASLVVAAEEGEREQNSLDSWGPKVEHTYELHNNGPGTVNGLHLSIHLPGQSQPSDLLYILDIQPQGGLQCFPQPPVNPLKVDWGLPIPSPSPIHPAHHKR
Chain of GPIIb/IIIa (P08514 891-1039 partner limits assumed): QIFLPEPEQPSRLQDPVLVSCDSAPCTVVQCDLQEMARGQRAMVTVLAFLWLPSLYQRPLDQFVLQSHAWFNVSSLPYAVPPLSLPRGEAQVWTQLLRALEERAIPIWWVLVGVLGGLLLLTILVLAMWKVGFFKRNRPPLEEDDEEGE
Chain of GPIIb/IIIa (P05106 27-788): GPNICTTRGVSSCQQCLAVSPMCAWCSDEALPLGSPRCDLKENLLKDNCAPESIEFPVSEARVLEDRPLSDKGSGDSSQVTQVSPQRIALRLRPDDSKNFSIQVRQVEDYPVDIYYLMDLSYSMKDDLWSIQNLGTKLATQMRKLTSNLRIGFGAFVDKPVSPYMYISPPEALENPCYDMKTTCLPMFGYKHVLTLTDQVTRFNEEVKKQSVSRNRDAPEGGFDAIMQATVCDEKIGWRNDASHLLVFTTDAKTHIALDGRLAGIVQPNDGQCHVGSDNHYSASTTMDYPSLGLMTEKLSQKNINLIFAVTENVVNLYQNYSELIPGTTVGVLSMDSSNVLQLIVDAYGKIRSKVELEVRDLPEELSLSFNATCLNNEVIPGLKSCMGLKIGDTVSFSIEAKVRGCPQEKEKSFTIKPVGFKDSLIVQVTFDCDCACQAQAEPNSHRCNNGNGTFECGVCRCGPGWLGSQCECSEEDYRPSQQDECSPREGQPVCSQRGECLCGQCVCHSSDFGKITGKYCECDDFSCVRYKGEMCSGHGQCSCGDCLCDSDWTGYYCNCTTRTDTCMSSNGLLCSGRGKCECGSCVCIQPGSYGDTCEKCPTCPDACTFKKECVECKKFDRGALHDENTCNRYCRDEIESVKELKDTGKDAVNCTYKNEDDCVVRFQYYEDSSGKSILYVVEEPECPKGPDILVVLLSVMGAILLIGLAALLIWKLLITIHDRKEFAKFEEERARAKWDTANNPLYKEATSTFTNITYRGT

| inhibition at 50 µM [1] [%] | IC50 [2] [nM] | IC50 [1] [nM] | Structure (SMILES) | inhibition at 50 µM [2] [%] |
| --- | --- | --- | --- | --- |
| 99 | 37000 | – | O=C(O)C[C@H](NC(=O)C1CCCN(CCCC2CCNCC2)C1)c1ccc2c(c1)OCO2 (stereo partly drawn) [Compound 20, N-3-(4-Piperidinepropyl)-nipecotyl-[(S)-3-amino-3-(3,4-methylenedioxyphenyl)]propionic acid] | 89.7 |
| 99 | 910 | 4 | CN1CCN(CCC(=O)N2CCCC(C(=O)NC(CC(=O)O)c3ccc4c(c3)OCO4)C2)CC1 (stereo not drawn) [Compound 14, N-3-(4-N-Methyl-piperazinepropionyl)-nipecotyl-[3-amino-3-(3,4-methylenedioxyphenyl)]propionic acid] | 91 |
| 79.6 | 1550 | – | O=C(O)C(O)CNC(=O)[C@@H]1CCCN(C(=O)CCC2CCNCC2)C1 (single isomer, unassigned) [Compound 11, N-3-(4-Piperidinepropionyl)-R-(-)-nipecotyl-(3-amino-2-hydroxy) propionic acid] | 99.2 |
| 100 | 300 | – | N=CN1CCC(CCC(=O)N2CCCC(C(=O)NC(CC(=O)O)c3cccnc3)C2)CC1 [Compound 33, N-3-(4-Formamidinopiperidinepropionyl)-R-(-)nipecotyl-[(S)-3-amino-3-(3-pyridyl)] propionic acid] | 100 |
| 89.9 | 26000 | 121 | Cc1ccc(C(CC(=O)O)NC(=O)C2CCN(C(=O)CCC3CCNCC3)C2)cc1 (stereo not drawn) [Compound 4, N-3-(4-Piperidinepropionyl)-pyrrolidine-3-carboxy-[3-amino-3-(4-tolyl)]propionic acid] | 81 |
| 100 | 20 | – | O=C(O)C[C@H](NC(=O)[C@@H]1CCCN(C(=O)CCC2CCNCC2)C1)c1cncc(Br)c1 [Compound 32, N-3-(4-Piperidinepropionyl)-R-(-)nipecotyl-[(S)-3-amino-3-(5-bromo-3-pyridyl)] propionic acid] | – |
| 100 | 42000 | – | O=C(NC[C@@H]1NC(=O)N(Cc2ccccc2)C1=O)[C@@H]1CCCN(C(=O)CCC2CCNCC2)C1 [Compound 29, N-3-(4-Piperidinepropionyl)-R-(-)nipecotyl-aminomethyl-5-(S)-(3-N-benzyl)imidazoline-2.4-dione] | 100 |
| 89 | 10000 | 12 | CC(CC(=O)O)NC(=O)C1CCN(C(=O)CCC2CCNCC2)CC1 (stereo not drawn) [Compound 5, N-3-(4-Piperidinepropionyl)-isonipecotyl-(3-amino-3-methyl) propionic acid] | 100 |
| 95 | 3600 | 3 | O=C(O)CC(NC(=O)C1CCCN(C(=O)CCC2CCNCC2)C1)c1ccccc1 (stereo not drawn) [Compound 1, N-3-(4-Piperidinepropionyl)-nipecotyl-(3-amino-3-phenyl) propionic acid] | 83 |
| 93 | 54000 | 27 | CC(CNC(=O)C1CCCN(C(=O)NCC2CCNCC2)C1)C(=O)O (stereo not drawn) [Compound 2, N-(4-Piperidinemethylaminocarbonyl)-nipecotyl-(3-amino-2-methyl) propionic acid] | 95.7 |
| 90.7 | 73000 | 197 | O=C(O)CC(NC(=O)C1CCN(C(=O)CCC2CCNCC2)CC1)c1ccc(C(=O)O)cc1 (stereo not drawn) [Compound 6] | 71.2 |
| 96 | 450 | 5 | O=C(O)CC(NC(=O)C1CCCCN(C(=O)CCC2CCNCC2)C1)c1cnc2ccccc2c1 (stereo not drawn) [Compound 17, N-3-(4-Piperidinepropionyl)-hexahydroazepine-3-carboxy-[3-amino-3-(3-quinolinyl)]propionic acid] | 89.6 |

| Structure (SMILES) | inhibition at 50 µM [1] [%] | IC50 [2] [nM] | IC50 [1] [nM] | inhibition at 50 µM [2] [%] |
| --- | --- | --- | --- | --- |
| O=C(O)CCNC(=O)C1CCCN(S(=O)(=O)CCC2CCNCC2)C1 (stereo not drawn) [Compound 12, N-3-(4-Piperidineethanesulfonyl)-nipecotyl-3-aminopropionic acid] | 97 | 15500 | 25 | 88 |
| NCCCCCC(=O)N1CCCC(C(=O)NC(CC(=O)O)c2cccnc2)C1 (stereo not drawn) [Compound 10, N-(6-Aminocaproyl)-nipecotyl-3-amino-3-(3-pyridyl)propionic acid] | 91.3 | 1600 | – | 85 |
| O=C(NCCc1nnn[nH]1)C1CCCN(C(=O)CCC2CCNCC2)C1 (stereo not drawn) [Compound 13, N-3-(4-Piperidinepropionyl)-nipecotyl-5H-(2-aminoethyl)tetrazole] | 95 | 25500 | 1390 | 67 |
| C[Si](C)(C)C#CC(CC(=O)O)NC(=O)C1CCCN(C(=O)CCC2CCNCC2)C1 (stereo not drawn) [Compound 9, N-3-(4-Piperidinepropionyl)-nipecotyl-[3-amino-3-(2-trimethylsilylethynyl)]propionic acid] | 99 | 370 | 2 | 90.9 |
| O=C(O)C1CN(C(=O)C2CCCN(C(=O)CCC3CCNCC3)C2)CCC1=O (stereo not drawn) [Compound 8, N-3-(4-Piperidinepropionyl)-nipecotyl-4-oxonipecotic acid] | 93 | – | 332 | – |
| COC(=O)[C@@H](CC(=O)O)NC(=O)C1CCCN(C(=O)OCC2CCNCC2)C1 (stereo partly drawn) [Compound 3, N-(4-Piperidinemethyloxycarbonyl)-nipecotyl-D-aspartic acid α-methyl ester] | 81 | > 100000 | – | 26.2 |
| CN1CCC(CCC(=O)N2CCCC(C(=O)NCCC(=O)O)C2)CC1 (stereo not drawn) [Compound 7, N-3-(4-N-Methyl-piperidinepropionyl)-nipecotyl-3-aminopropionic acid] | 100 | 2400 | 6 | 75.6 |
